Ends that are not written are not given here.
These molecules were tested on exosome fraction B derived from human breast cancer cells versus exosome fraction derived from human mammary gland cells (MCF-10A, normal cells) (assay: Selectivity: miR-16 ratio, breast cancer exosomes versus mammary gland normal cell exosomes (Formula 1)). Conditions: Formula 1, cancer/normal (MCF-10A); 100 μM peptide, 37° C., 24 hours.
Type: biochemical
Description: (§1) A cell suspension of cell line MDA-MB-231-luc-D3H2LN derived from human breast cancer (=MM231-luc-D3H2LN, provided by the National Cancer Center Research Institute) was seeded in a dish containing RPMI 1640 medium (manufactured by Thermo Fisher Scientific Inc.) containing 10% fetal bovine serum. Subsequently, the cell line was grown at 37° C. under the condition that CO2 concentration was set to 5 volume % using a CO2 incubator, and then the medium was replaced with Advanced RPMI 1640 medium (manufactured by Thermo Fisher Scientific Inc.), followed by culturing for 48 hours, and therefore the culture solution containing exosomes was obtained. This culture solution was centrifuged at 2,000 G for 10 minutes to remove the precipitate, followed by centrifugation at 110,000 G for 70 minutes to precipitate the exosomes, and therefore an exosome fraction B was recovered. The recovered exosome fraction B was suspended in a phosphate buffered saline (PBS) and then stored at 4° C. Storage samples were lightly suspended with a vortex mixer (vibration mixer) before use.
A cell suspension of cell line MCF 10A derived from human mammary epithelial cells (provided by the National Cancer Center Research Institute) was seeded in a dish containing Mammary Epithelium Cell Basal Medium (manufactured by Lonza). Subsequently, the cell line was grown at 37° C. under the condition that CO2 concentration was set to 5 volume % using a CO2 incubator, and then the medium was replaced with a fresh medium, followed by culturing for 48 hours, and the culture solution containing exosomes was obtained. This culture solution was centrifuged at 2,000 G for 10 minutes to remove the precipitate, followed by centrifugation at 110,000 G for 70 minutes to precipitate the exosomes, and an exosome fraction was recovered. The recovered exosome fraction was suspended in a phosphate buffered saline (PBS) and then stored at 4° C. Storage samples were lightly suspended with a vortex mixer (vibration mixer) before use.
(§2) MicroRNA (miR-21 or miR-16) in the reaction solution was subjected to reverse transcription PCR using reverse transcription primers (manufactured by Thermo Fisher Scientific Inc., Taqman microRNA Assays, RT primers, and hsa-mir-21 or hsa-mir-16) and a reverse transcriptase (manufactured by Thermo Fisher Scientific Inc., Taqman microRNA RT kit).
(§3) The reverse transcription PCR solution obtained by the above described method was processed and by comparing the number of cycles on a calibration curve of microRNA using Taqman Assay primer (manufactured by Thermo Fisher Scientific Inc., Taqman microRNA Assays, Taqman Assay primer, and hsa-mir-21 or hsa-mir-16) and Real-Time PCR Master Mixes (manufactured by Thermo Fisher Scientific Inc., TaqMan Universal PCR Master Mix II, w/UNG) with StepOnePlus Real-Time PCR System, MiR-21 or miR-16 was quantified. The calibration curve of microRNA was created using synthetic miR-21 (manufactured by Sigma-Aldrich Co. LLC.) or synthetic miR-16 (manufactured by Sigma-Aldrich Co. LLC.).
(§4) 10 μL of the exosome fraction was prepared such that PBS contains 1×10^11 particles/mL of the exosome fraction B derived from human breast cancer cells, various antimicrobial peptides shown in the following Table 4 adjusted to 100 μM, and 0.4 U/μL of RNase inhibitor (manufactured by Toyobo Co., Ltd.), followed by incubation by being left to stand at 37° C. for 24 hours.
Thereafter, the eluted MicroRNA (miR-16) was purified and recovered from the incubated solution by the same method as the above described method for extraction from the incubated solution of Examples 10 and 11 above and Comparative Examples 6 and 7 above. […]

Molecule	mir-16 ratio
CC[C@H](C)[C@H](NC(=O)CN)C(=O)NCC(=O)N[C@@H](C)C(=O)N[C@H](C(=O)N[C@@H](CC(C)C)C(=O)N[C@@H](CCCCN)C(=O)N[C@H](C(=O)N[C@@H](CC(C)C)C(=O)N[C@H](C(=O)N[C@H](C(=O)NCC(=O)N[C@@H](CC(C)C)C(=O)N1CCC[C@H]1C(=O)N[C@@H](C)C(=O)N[C@@H](CC(C)C)C(=O)N[C@H](C(=O)N[C@@H](CO)C(=O)N[C@@H](Cc1c[nH]c2ccccc12)C(=O)N[C@H](C(=O)N[C@@H](CCCCN)C(=O)N[C@@H](CCCNC(=N)N)C(=O)N[C@@H](CCCCN)C(=O)N[C@@H](CCCNC(=N)N)C(=O)N[C@@H](CCC(N)=O)C(=O)N[C@@H](CCC(N)=O)C(N)=O)[C@@H](C)CC)[C@@H](C)CC)[C@@H](C)O)[C@@H](C)O)C(C)C)C(C)C [Melittin]	42
Caerin 1.1	27

Same assay, conditions: from miR-16 ratio versus Comparative Example 8; breast cancer vs MCF-10A exosomes

Molecule	Selectivity
CC[C@H](C)[C@H](NC(=O)CN)C(=O)NCC(=O)N[C@@H](C)C(=O)N[C@H](C(=O)N[C@@H](CC(C)C)C(=O)N[C@@H](CCCCN)C(=O)N[C@H](C(=O)N[C@@H](CC(C)C)C(=O)N[C@H](C(=O)N[C@H](C(=O)NCC(=O)N[C@@H](CC(C)C)C(=O)N1CCC[C@H]1C(=O)N[C@@H](C)C(=O)N[C@@H](CC(C)C)C(=O)N[C@H](C(=O)N[C@@H](CO)C(=O)N[C@@H](Cc1c[nH]c2ccccc12)C(=O)N[C@H](C(=O)N[C@@H](CCCCN)C(=O)N[C@@H](CCCNC(=N)N)C(=O)N[C@@H](CCCCN)C(=O)N[C@@H](CCCNC(=N)N)C(=O)N[C@@H](CCC(N)=O)C(=O)N[C@@H](CCC(N)=O)C(N)=O)[C@@H](C)CC)[C@@H](C)CC)[C@@H](C)O)[C@@H](C)O)C(C)C)C(C)C [Melittin]	B (evaluated as “B” in a case where the calculated miR-16 value was higher than the miR-16 ratio of Comparative Example 8)
Caerin 1.1	B (evaluated as “B” in a case where the calculated miR-16 value was higher than the miR-16 ratio of Comparative Example 8)

Each molecule was assayed on exosome fraction B derived from human breast cancer cells (MDA-MB-231-luc-D3H2LN) (assay: Extraction of microRNA (miR-21) from exosomes derived from human breast cancer cells, real-time PCR). Conditions: 100 μM peptide, 1×10^11 particles/mL exosomes, 0.4 U/μL RNase inhibitor, 37° C., 24 hours; without peptide 8×10^−14M.
Type: biochemical
Description: as §1, §2, §3
as §4, with “Table 2” for “Table 4”
MicroRNA eluted into the solution was purified and recovered from the incubated solution of Example 10 above and Comparative Example 6 above by the following method.
First, 160 μL of PBS was added to the reaction solution, and then the solution was added to a centrifugal filter (manufactured by Millipore Corporation, Amicon Ultra 0.5 mL, 100K filter) and centrifuged at 14,000 G for 2 minutes. Subsequently, 100 μL of the centrifuged filtrate was recovered and introduced into a 1.5 mL tube. Next, 350 μL of RLT buffer (manufactured by QIAGEN, attached with RNeasy mini kit) and 675 μL of ethanol were added and mixed in the 1.5 mL tube. The obtained mixture was separated into two parts, and each of the separates was added onto a spin column (manufactured by QIAGEN, attached with RNeasy mini kit) followed by centrifugation at 8,000 G for 15 seconds, and the entire amount of the mixture was passed through the spin column. Thereafter, 500 μL of RPE buffer (manufactured by QIAGEN, attached with RNeasy mini kit) was added thereto and centrifuged at 8,000 G for 15 seconds. Furthermore, 500 μL of the RPE buffer was added to the spin column once more and centrifuged at 8,000 G for 15 seconds. Thereafter, the spin column was centrifuged at 14,000 G for 1 minute to remove the residual RPE buffer. Next, 30 μL of RNase free water (manufactured by QIAGEN, attached with RNeasy mini kit) was added to the spin column, left for 1 minute, and then centrifuged at 14,000 G for 1 minute, and the eluate obtained thereby was recovered. […]

Molecule	Destructive activity (concentration of microRNA miR-21 in eluate)
9R: amino acid sequence RRRRRNWMWC	B (the concentration of microRNA is 10×10^−14M to 50×10^−14M)
CCCCCCCCCCCCCCCC[N+](C)(C)C.[Br-] [1% CTAB, CTAB, reference compound]	D (the concentration of microRNA is less than 10×10^−14M)
N=C(N)N [4M guanidine, guanidine, reference compound]	D (the concentration of microRNA is less than 10×10^−14M)
CC[C@H](C)[C@H](NC(=O)CN)C(=O)NCC(=O)N[C@@H](C)C(=O)N[C@H](C(=O)N[C@@H](CC(C)C)C(=O)N[C@@H](CCCCN)C(=O)N[C@H](C(=O)N[C@@H](CC(C)C)C(=O)N[C@H](C(=O)N[C@H](C(=O)NCC(=O)N[C@@H](CC(C)C)C(=O)N1CCC[C@H]1C(=O)N[C@@H](C)C(=O)N[C@@H](CC(C)C)C(=O)N[C@H](C(=O)N[C@@H](CO)C(=O)N[C@@H](Cc1c[nH]c2ccccc12)C(=O)N[C@H](C(=O)N[C@@H](CCCCN)C(=O)N[C@@H](CCCNC(=N)N)C(=O)N[C@@H](CCCCN)C(=O)N[C@@H](CCCNC(=N)N)C(=O)N[C@@H](CCC(N)=O)C(=O)N[C@@H](CCC(N)=O)C(N)=O)[C@@H](C)CC)[C@@H](C)CC)[C@@H](C)O)[C@@H](C)O)C(C)C)C(C)C [Melittin]	A (the concentration of microRNA is 50×10^−14M or more)
CCCCCCCCCCCCCCCCCCOP(=O)([O-])OCC[P+](C)(C)C [Octadecylphosphophosphoniumcholine, reference compound]	D (the concentration of microRNA is less than 10×10^−14M)
(Gln^53)-Connexin 37 (51-58) [(Gln^53)-Connexin 37(51-58)]	D (the concentration of microRNA is less than 10×10^−14M)
(HHPHG)3	B (the concentration of microRNA is 10×10^−14M to 50×10^−14M)
(HHPHG) 2 (HHPHGHHPHG) [(HHPHG)2]	B (the concentration of microRNA is 10×10^−14M to 50×10^−14M)
(HHPHG) 4 [(HHPHG)4]	B (the concentration of microRNA is 10×10^−14M to 50×10^−14M)
Alloferon 1 (HGVSGHGQHGVHG)	D (the concentration of microRNA is less than 10×10^−14M)
Ascaphin-8	B (the concentration of microRNA is 10×10^−14M to 50×10^−14M)
Benzalkonium-Cl [1% Benzalkonium-Cl, reference compound]	D (the concentration of microRNA is less than 10×10^−14M)
Buforin IIb	B (the concentration of microRNA is 10×10^−14M to 50×10^−14M)
C-Reactive Protein (CRP) (174-185) (IYLGGPFSPNVL; UniProt P02741 192-203, looked up, fragment)	D (the concentration of microRNA is less than 10×10^−14M)
Caerin 1.1	A (the concentration of microRNA is 50×10^−14M or more)
Cecropin B (KWKVFKKIEKMGRNIRNGIVKAGPAIAVLGEAKAL-NH2)	B (the concentration of microRNA is 10×10^−14M to 50×10^−14M)
Defensin HNP-1	B (the concentration of microRNA is 10×10^−14M to 50×10^−14M)
Dermaseptin	B (the concentration of microRNA is 10×10^−14M to 50×10^−14M)

Molecule	Destructive activity (concentration of microRNA miR-21 in eluate)
Dermcidin-1L (SSLLEKGLDGAKKAVGGLGKLGKDAVEDLESVGKGAVHDVKDVLDSVL)	D (the concentration of microRNA is less than 10×10^−14M)
Epinecidin-1 (GFIFHIIKGLFHAGKMIHGLV-NH2)	B (the concentration of microRNA is 10×10^−14M to 50×10^−14M)
Gageostatin C	D (the concentration of microRNA is less than 10×10^−14M)
Hepcidin-20 (ICIFCCGCCHRSKCGMCCKT; ends and bridges not checked; cysteine pairing not given here; UniProt P81172 65-84, looked up)	D (the concentration of microRNA is less than 10×10^−14M)
Histatin-5	B (the concentration of microRNA is 10×10^−14M to 50×10^−14M)
Macropin 1	B (the concentration of microRNA is 10×10^−14M to 50×10^−14M)
Maculatin 3.1	B (the concentration of microRNA is 10×10^−14M to 50×10^−14M)
Magainin I (GIGKFLHSAGKFGKAFVGEIMKS) [Megainin I]	B (the concentration of microRNA is 10×10^−14M to 50×10^−14M)
NK-2	B (the concentration of microRNA is 10×10^−14M to 50×10^−14M)
NRC-03	B (the concentration of microRNA is 10×10^−14M to 50×10^−14M)
NRC-07	B (the concentration of microRNA is 10×10^−14M to 50×10^−14M)
PTP7	D (the concentration of microRNA is less than 10×10^−14M)
Pardaxin 4	B (the concentration of microRNA is 10×10^−14M to 50×10^−14M)
Sesquin (KTCENLADTY)	D (the concentration of microRNA is less than 10×10^−14M)
Short α-helical peptides (2) (GIIKKIIKKIIKKIIKKI-NH2)	B (the concentration of microRNA is 10×10^−14M to 50×10^−14M)
TsAP-2	B (the concentration of microRNA is 10×10^−14M to 50×10^−14M)
Tuftsin	B (the concentration of microRNA is 10×10^−14M to 50×10^−14M)

Reference: patent publication US10071133B2, “Method for destroying exosomes, kit for destroying exosomes, and method for isolating exosomes derived from normal cells” (priority 2015, dated 2018)
